Experimental data as given in ChEMBL document CHEMBL5696443 (Clin Cancer Res, 2016).
The source made the active and inactive calls. No cut-off for these calls is given here.

Key:
[1] = target: CDK9/Cyclin K (Homo sapiens) (UniProt P50750+O75909); test: Inhibition of human CDK9/CyclinK at 1 uM using KTFCGTPEYLAPEVRREPRILSEEEQEMFRDFDYIADWC as substrate in presence of [gamma33P]-ATP by HotSpot assay relative to control; assay type: protein-complex assay
[2] = target: Insulin-like growth factor 1 receptor (Homo sapiens, UniProt P08069); test: Inhibition of human IGF1R using KKKSPGEYVNIEFG as substrate in presence of [gamma33P]-ATP by HotSpot assay
[3] = target: Hepatocyte growth factor receptor (Homo sapiens, UniProt P08581); test: Inhibition of human MET using poly (Glu, Tyr)4:1 as substrate in presence of [gamma33P]-ATP by HotSpot assay
[4] = target: MAP kinase-interacting serine/threonine-protein kinase 1 (Homo sapiens, UniProt Q9BUB5, T385D); test: Inhibition of human MNK1 T385D mutant using MBP as substrate in presence of [gamma33P]-ATP by HotSpot assay
[5] = target: Serine/threonine-protein kinase MARK1 (Homo sapiens, UniProt Q9P0L2); test: Inhibition of human MARK1 using KKKVSRSGLYRSPSMPENLNRPR as substrate in presence of [gamma33P]-ATP by HotSpot assay
[6] = target: Tyrosine-protein kinase ABL1 (Homo sapiens, UniProt P00519, Q252H); test: Inhibition of human ABL1 Q252H mutant using EAIYAAPFAKKK as substrate in presence of [gamma33P]-ATP by HotSpot assay
[7] = target: Fibroblast growth factor receptor 2 (Homo sapiens, UniProt P21802); test: Inhibition of human FGFR2 using poly (Glu, Tyr)4:1 as substrate in presence of [gamma33P]-ATP by HotSpot assay
Aurora kinase C = Aurora kinase C (Homo sapiens, UniProt Q9UQB9); test: Inhibition of human AURKC using H-LRRASLG as substrate in presence of [gamma33P]-ATP by HotSpot assay
[8] = target: Serine/threonine-protein kinase B-raf (Homo sapiens) (UniProt P15056); test: Inhibition of human BRAF at 1 uM using MEK1 as substrate in presence of [gamma33P]-ATP by HotSpot assay relative to control
[9] = target: CDK3/Cyclin E (Homo sapiens) (UniProt P24864+Q00526); test: Inhibition of human CDK3/CyclinE at 1 uM using RB protein as substrate in presence of [gamma33P]-ATP by HotSpot assay relative to control; assay type: protein-complex assay
[10] = target: Ephrin type-B receptor 3 (Homo sapiens) (UniProt P54753); test: Inhibition of human EPHB3 at 1 uM using poly (Glu, Tyr)4:1 as substrate in presence of [gamma33P]-ATP by HotSpot assay relative to control
[11] = target: Inhibitor of nuclear factor kappa-B kinase subunit beta (Homo sapiens) (UniProt O14920); test: Inhibition of human IKBKB at 1 uM using KKKKERLLDDRHDSGLDSMKDEE as substrate in presence of [gamma33P]-ATP by HotSpot assay relative to control
[12] = target: Tyrosine-protein kinase Lyn (Homo sapiens, UniProt P07948); test: Inhibition of human LYNB at 1 uM using poly (Glu, Tyr)4:1 as substrate in presence of [gamma33P]-ATP by HotSpot assay relative to control
[13] = target: Mitogen-activated protein kinase kinase kinase 5 (Homo sapiens) (UniProt Q99683); test: Inhibition of human MAP3K5 at 1 uM using MBP as substrate in presence of [gamma33P]-ATP by HotSpot assay relative to control
[14] = target: Muscle, skeletal receptor tyrosine-protein kinase (Homo sapiens) (UniProt O15146); test: Inhibition of human MUSK at 1 uM using MBP as substrate in presence of [gamma33P]-ATP by HotSpot assay relative to control
NCI-H3122 = test: Inhibition of ERK phosphorylation in ALK-positive human NCI-H3122 cells at 1 to 1000 nM incubated for 1 hrs by immunoblot analysis; assay type: cell-based; conditions: dose 1-1000 nM
[15] = target: Serine/threonine-protein kinase Nek1 (Homo sapiens) (UniProt Q96PY6); test: Inhibition of human NEK1 at 1 uM using MBP as substrate in presence of [gamma33P]-ATP by HotSpot assay relative to control
[16] = target: Serine/threonine-protein kinase PAK 6 (Homo sapiens) (UniProt Q9NQU5); test: Inhibition of human PAK6 at 1 uM using RRRLSFAEPG as substrate in presence of [gamma33P]-ATP by HotSpot assay relative to control
[17] = target: TGF-beta receptor type-2 (Homo sapiens) (UniProt P37173); test: Inhibition of human TGFBR2 at 1 uM using MBP as substrate in presence of [gamma33P]-ATP by HotSpot assay relative to control
[18] = target: Dual specificity protein kinase TTK (Homo sapiens) (UniProt P33981); test: Inhibition of human TTK at 1 uM using MBP as substrate in presence of [gamma33P]-ATP by HotSpot assay relative to control
[19] = Toxicity in SCID Beige mouse xenografted with ALK positive human KARPAS-299 cells assessed as effect on body weight at 10 to 50 mg/kg; assay type: organism-based; conditions: in vivo, dose 10-50 mg/kg
BaF3 [20] = test: Antitumor activity against mouse BaF3 cells expressing EML4-ALK L1196M mutant implanted in mouse assessed as tumor regression at 50 mg/kg, po administered once daily and measured after 8 days relative to control; assay type: functional; conditions: time 8 day
BaF3 [21] = test: In vivo inhibition of ALK signaling in mouse implanted with mouse BaF3 cells expressing EML4-ALK L1196M mutant assessed as inhibition of ALK phosphorylation at 25 mg/kg, po administered as single dose and measured at 6 to 24 hrs by ELISA; assay type: functional, organism-based; conditions: time 6-24 hrs
BaF3 [22] = test: In vivo inhibition of ALK signaling in mouse implanted with mouse BaF3 cells expressing EML4-ALK G1202R mutant assessed as inhibition of ALK phosphorylation at 25 mg/kg, po administered as single dose and measured at 6 to 24 hrs by ELISA; assay type: functional, organism-based; conditions: time 6-24 hrs
[23] = tested on: EML4-ALK (Homo sapiens), Q9UM73+Q9HC35 [L1152P]; conditions: BaF3, time 3-5 weeks
[24] = tested on: EML4-ALK (Homo sapiens), Q9UM73+Q9HC35 [I1171N]; conditions: BaF3, dose 750.0 nmol/L, time 3-5 weeks
[25] = tested on: EML4-ALK (Homo sapiens), Q9UM73+Q9HC35 [F1174C]; conditions: BaF3, dose 200.0 nmol/L, time 3-5 weeks
[26] = tested on: EML4-ALK (Homo sapiens), Q9UM73+Q9HC35 [V1180L]; conditions: BaF3, dose 500.0 nmol/L, time 3-5 weeks
cells = conditions: Homo sapiens, BaF3, 72 h

Hepatocyte growth factor receptor, sequence (P08581 whole entry): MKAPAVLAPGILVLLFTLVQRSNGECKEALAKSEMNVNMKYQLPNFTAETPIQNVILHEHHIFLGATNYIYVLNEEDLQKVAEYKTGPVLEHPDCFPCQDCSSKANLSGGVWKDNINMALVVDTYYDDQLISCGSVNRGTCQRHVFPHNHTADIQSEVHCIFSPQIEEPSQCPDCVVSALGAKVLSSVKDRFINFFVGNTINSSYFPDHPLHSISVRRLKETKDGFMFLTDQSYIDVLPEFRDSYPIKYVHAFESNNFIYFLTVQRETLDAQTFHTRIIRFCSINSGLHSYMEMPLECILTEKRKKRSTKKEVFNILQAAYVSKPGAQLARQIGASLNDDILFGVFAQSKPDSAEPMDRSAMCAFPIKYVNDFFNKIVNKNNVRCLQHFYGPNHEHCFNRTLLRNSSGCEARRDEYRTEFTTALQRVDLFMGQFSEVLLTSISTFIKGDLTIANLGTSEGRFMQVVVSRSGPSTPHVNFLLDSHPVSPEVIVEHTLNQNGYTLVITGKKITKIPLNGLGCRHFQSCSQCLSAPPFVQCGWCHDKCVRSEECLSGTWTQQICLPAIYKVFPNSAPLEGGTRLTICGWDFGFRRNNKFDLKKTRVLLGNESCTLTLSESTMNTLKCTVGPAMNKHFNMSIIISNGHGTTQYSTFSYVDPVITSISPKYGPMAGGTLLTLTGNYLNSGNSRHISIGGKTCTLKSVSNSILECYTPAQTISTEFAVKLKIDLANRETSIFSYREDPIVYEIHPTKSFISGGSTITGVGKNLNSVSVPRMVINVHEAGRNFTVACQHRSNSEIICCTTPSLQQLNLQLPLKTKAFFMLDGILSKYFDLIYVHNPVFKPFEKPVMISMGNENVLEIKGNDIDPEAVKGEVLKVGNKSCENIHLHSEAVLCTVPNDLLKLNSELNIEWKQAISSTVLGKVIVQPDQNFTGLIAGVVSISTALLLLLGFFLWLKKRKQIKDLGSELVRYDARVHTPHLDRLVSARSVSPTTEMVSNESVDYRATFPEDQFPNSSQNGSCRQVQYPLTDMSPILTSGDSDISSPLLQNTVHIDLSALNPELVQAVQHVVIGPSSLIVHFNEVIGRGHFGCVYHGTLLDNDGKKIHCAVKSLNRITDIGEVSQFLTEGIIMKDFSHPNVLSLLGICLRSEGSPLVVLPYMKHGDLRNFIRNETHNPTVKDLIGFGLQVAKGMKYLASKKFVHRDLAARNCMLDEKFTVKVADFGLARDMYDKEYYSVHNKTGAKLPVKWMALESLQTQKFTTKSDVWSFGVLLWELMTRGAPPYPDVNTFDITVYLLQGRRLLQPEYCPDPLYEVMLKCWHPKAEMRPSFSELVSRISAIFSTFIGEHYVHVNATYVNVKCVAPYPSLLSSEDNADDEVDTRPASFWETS
Serine/threonine-protein kinase Nek1 (Homo sapiens), sequence (Q96PY6 whole entry): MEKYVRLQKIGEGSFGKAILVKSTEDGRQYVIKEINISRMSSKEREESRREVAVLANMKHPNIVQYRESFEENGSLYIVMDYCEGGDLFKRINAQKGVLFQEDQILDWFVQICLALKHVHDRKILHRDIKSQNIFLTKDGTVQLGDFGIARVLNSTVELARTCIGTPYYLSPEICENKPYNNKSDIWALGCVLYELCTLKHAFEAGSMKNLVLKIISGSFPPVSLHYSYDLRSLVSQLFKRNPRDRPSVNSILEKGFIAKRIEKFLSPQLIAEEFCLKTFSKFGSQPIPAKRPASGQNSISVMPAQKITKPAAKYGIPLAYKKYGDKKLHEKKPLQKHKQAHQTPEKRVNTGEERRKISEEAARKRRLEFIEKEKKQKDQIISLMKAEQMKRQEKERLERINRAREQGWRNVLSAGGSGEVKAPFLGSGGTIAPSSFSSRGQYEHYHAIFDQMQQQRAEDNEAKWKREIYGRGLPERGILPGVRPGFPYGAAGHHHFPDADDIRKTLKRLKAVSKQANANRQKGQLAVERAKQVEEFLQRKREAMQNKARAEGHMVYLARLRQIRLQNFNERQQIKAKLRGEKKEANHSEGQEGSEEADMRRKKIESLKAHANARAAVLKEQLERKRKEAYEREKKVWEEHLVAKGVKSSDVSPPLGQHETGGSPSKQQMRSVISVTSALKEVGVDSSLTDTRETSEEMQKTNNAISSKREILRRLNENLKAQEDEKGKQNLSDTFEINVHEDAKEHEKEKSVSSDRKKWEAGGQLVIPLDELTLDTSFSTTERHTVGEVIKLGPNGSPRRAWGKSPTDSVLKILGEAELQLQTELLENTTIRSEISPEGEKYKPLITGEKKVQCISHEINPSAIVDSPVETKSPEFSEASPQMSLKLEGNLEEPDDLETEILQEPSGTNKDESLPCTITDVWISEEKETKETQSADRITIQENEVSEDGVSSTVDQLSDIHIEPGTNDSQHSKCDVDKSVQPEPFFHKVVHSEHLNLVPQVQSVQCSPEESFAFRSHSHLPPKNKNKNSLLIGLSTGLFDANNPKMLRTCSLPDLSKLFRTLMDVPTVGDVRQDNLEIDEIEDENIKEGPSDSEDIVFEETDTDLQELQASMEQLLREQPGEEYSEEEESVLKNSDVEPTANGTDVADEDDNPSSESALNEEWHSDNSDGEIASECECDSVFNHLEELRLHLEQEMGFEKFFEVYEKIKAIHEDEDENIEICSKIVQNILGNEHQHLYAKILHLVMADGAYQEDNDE
Muscle, skeletal receptor tyrosine-protein kinase (Homo sapiens), sequence (O15146 whole entry): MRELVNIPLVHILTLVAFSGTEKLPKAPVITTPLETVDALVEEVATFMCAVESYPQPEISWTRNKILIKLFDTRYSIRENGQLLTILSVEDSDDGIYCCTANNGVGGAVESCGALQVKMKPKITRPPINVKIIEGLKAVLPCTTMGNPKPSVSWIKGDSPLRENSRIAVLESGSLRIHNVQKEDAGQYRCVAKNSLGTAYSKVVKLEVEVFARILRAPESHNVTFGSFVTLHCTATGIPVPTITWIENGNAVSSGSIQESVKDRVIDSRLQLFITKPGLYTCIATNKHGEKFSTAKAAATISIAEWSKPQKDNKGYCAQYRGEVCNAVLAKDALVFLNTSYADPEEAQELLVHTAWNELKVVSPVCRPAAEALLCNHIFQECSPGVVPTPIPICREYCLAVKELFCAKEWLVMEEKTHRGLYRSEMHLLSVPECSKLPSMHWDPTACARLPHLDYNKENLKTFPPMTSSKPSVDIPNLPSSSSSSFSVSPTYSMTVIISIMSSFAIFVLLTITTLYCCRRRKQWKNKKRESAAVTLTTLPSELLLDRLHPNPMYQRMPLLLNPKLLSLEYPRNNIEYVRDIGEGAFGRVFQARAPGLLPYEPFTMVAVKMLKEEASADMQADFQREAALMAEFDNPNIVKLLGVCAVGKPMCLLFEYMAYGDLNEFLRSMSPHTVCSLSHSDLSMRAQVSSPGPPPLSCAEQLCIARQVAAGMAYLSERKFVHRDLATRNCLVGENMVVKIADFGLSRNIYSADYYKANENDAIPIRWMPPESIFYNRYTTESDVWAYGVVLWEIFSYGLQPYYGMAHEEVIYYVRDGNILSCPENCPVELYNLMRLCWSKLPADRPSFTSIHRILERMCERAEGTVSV
MAP kinase-interacting serine/threonine-protein kinase 1, sequence (Q9BUB5 whole entry T385D): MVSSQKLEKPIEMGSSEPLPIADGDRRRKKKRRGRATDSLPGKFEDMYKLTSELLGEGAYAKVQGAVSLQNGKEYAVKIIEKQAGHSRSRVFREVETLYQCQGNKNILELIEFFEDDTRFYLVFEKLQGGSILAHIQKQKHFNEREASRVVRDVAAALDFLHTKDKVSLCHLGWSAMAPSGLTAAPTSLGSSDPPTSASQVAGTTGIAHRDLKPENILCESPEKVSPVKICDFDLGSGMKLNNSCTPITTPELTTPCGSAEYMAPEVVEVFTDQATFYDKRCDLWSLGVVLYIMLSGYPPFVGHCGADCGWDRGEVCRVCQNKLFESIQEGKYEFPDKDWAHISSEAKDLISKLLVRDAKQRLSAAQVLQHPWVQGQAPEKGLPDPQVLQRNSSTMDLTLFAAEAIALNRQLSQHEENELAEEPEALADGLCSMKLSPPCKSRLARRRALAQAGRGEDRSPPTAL
TGF-beta receptor type-2 (Homo sapiens), sequence (P37173 whole entry): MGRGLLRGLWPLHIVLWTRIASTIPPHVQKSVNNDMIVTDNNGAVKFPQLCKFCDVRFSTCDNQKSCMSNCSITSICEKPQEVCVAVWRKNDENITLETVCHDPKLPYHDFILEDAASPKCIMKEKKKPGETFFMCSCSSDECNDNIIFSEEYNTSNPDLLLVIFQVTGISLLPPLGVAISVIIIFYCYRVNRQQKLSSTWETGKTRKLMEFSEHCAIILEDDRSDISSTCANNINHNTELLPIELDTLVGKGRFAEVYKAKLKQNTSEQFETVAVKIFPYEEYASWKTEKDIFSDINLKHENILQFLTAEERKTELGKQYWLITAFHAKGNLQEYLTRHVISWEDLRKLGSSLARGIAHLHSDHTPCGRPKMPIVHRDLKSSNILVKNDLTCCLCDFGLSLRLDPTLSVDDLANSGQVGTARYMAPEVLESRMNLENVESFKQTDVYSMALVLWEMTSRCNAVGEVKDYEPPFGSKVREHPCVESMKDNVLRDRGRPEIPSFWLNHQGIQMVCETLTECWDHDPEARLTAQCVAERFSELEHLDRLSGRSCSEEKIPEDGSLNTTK
Aurora kinase C, sequence (Q9UQB9 whole entry): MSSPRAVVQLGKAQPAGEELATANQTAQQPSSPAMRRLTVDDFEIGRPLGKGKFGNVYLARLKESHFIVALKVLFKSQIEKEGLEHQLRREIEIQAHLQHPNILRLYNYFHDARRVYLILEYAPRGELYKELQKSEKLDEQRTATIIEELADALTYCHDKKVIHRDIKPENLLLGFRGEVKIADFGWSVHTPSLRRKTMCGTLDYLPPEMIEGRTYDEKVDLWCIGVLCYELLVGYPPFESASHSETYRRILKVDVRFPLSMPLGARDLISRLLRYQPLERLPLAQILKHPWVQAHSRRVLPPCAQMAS

For `COc1cc(N2CCC(N3CCN(C)CC3)CC2)ccc1Nc1ncc(Cl)c(Nc2ccccc2P(C)(C)=O)n1` [BRIGATINIB], the inhibition [1] was < 90%, the IC50 [2] was 0.073 µM and the IC50 [3] was > 1 µM. For the same compound, the IC50 [4] was 0.088 µM, the IC50 [5] was 0.127 µM and the IC50 [6] was 0.171 µM. The IC50 [7] was 0.228 µM, the IC50 (Aurora kinase C) was > 1 µM and the inhibition [8] was < 90%. For the same compound, the inhibition [9] was < 90%, the inhibition [10] was < 90% and the inhibition [11] was < 90%. The inhibition [12] was < 90%, the inhibition [13] was < 90% and the inhibition [14] was < 90%. For the same compound, the inhibition (NCI-H3122) was “Active”, the inhibition [15] was < 90% and the inhibition [16] was < 90%. For the same compound, the inhibition [17] was < 90%, the inhibition [18] was < 90% and the Activity [19] was “Non-Toxic”. For the same compound, the Activity (BaF3 [20]) was 67%, the inhibition (BaF3 [21]) was “Active” and the inhibition (BaF3 [22]) was “Active”. For the same compound, the IC90 [23] was 0.094 µM, the inhibition [24] was “Active” and the inhibition [25] was “inactive”. For the same compound, the inhibition [26] was “Active” and the IC50 (cells) was 0.031 µM.
